From the NIST ThermoML archive (doi:10.1021/je200969r)

Experiment: refractive index (other wavelength) (dimensionless)
Details: 101.33 kPa, Liquid, Minimum Deviation technique

[2H]O[2H] [water-d2]
refractive index
Details	Wavelength=543.5 nm	Wavelength=594.1 nm	Wavelength=632.8 nm
288.35 K	1.33	1.3283	1.3272
293.29 K	1.3298	1.3281	1.327
298.12 K	1.3293	1.3278	1.3267
303.15 K	1.3285	1.3271	1.326
308.09 K	1.328	1.3266	1.3254
313.11 K	1.3275	1.3259	1.3249
318.13 K	1.3269	1.3254	1.3243
323.14 K	1.3263	1.3248	1.3237
328.12 K	1.3251	1.3236	1.3225
333.06 K	1.3244	1.3229	1.3219
337.98 K	1.3237	1.3221	1.3211
